In US20230181703A1, “COMPOSITION COMPRISING PEPSTATIN AND ALGINIC ACID OR A SALT THEREOF, AND USE THEREOF” (DRUGS MINERALS AND GENERICS ITALIA S.R.L. IN FORMA …, priority 2020, published 2023):
Values after ≈ are worked out from the molar mass of the structure shown. Where a SMILES comes first, the peptide text is derived from it. [ ]: non-standard residue; d: D form. The star is where a group is joined. Sta = CC(C)C[C@H](N)[C@@H](O)CC(=O)O; Isovaleryl = CC(C)CC(=O)*

What was measured:
[1] = molecular target: T1, pepsin (Sus scrofa, UniProt P00791); assay: Enzymatic activity of pepsin (adapted Anson method, denatured haemoglobin substrate, absorbance at 280 nm); assay type: biochemical; conditions: for ΔAX at 280 nm: inhibitor 0.01% (suspension in H2O)
T1 construct: purchased BDH
T1 sequence (P00791 60-385): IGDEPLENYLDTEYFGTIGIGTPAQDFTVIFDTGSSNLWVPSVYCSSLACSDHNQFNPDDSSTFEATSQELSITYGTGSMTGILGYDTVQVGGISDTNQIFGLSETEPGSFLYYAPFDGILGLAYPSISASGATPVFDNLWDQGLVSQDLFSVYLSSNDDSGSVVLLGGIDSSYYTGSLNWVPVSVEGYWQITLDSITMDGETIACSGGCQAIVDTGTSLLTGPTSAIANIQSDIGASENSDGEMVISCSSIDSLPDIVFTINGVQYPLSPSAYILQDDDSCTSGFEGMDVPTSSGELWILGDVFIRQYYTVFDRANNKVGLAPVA
Experimental: The method used to measure the enzymatic activity of pepsin alone or together with the inhibitory substance (pepstatin), consists of an adaptation of the Anson method [Anson et al, J. Gen. Physiol. 1931, 16, 59] which provides for the use of denatured haemoglobin as substrate. The enzymatic activity was determined after precipitation with trichloroacetic acid of the non-hydrolysed substrate. The activity of the enzyme was determined spectrophotometrically from the concentration of soluble peptides released by the proteolytic action.
T=37° C., pH=1,5, Anm, optical path 1 cm, reaction time 10 minutes. At pH=1.5, in which the experiments were conducted, there is a maximum activity of pepsin.
Haemoglobin 2%, pepsin 0,02%, inhibitor 0.01%.
Substrate: 250 mg of human haemoglobin are weighed in a 10 mL flask, it is brought up to volume with distilled water and left under stirring for 10 minutes in a water bath at 37° C. to obtain a solution 2.5%. The solution is passed through a filter paper to eliminate insoluble residues. 8 mL of the filtrate are taken and the volume is brought up to 10 mL with acidic water so as to have a final pH finale of 1.5 and a solution 2% (w/V).
Enzyme: 5 mg of pepsin are weighed in a 5 mL flask and it is brought up to volume with acidic water (pH=1.5).
Enzyme together with inhibitory substance: 5 mg of pepsin are weighed in a 5 mL flask. 0.5 mg/mL of a solution or suspension at pH=1.5 of the inhibitory substance are prepared separately (checking the pH with a pH meter and correcting it, if necessary, with hydrochloric acid 12 M in an amount such not to change the total volume). […]
0.25 mL of substrate (haemoglobin) are pipetted in a suitable vial and almost entirely submerged in a water bath thermostated at 37° C. It is left under magnetic stirring for 10 minutes at 37° C. 50 microlitres of the enzyme solution (pepsin) or of the enzyme together with the inhibitory substance (pepsin+pepstatin A) are then added and the system is kept under incubation for exactly 10 minutes. 0.5 mL of the trichloroacetic acid solution 5% are added after this period of time and then left for another 5 minutes. Exactly 3 mL of distilled water at pH=1.5 are added into the vial using a graduated pipette; the solution is stirred and filtered using a 0.45 μm syringe filter. An absorption spectrum (with absorbance (A) always below 1) with wavelengths comprised between 300 nm and 250 nm is recorded using a spectrophotometer using the absorbance value at 280 nm as reference.
Blank: 0.25 mL of substrate (haemoglobin) are pipetted in a suitable vial and almost entirely submerged in a water bath thermostated at 37° C. It is left under magnetic stirring for 10 minutes. 50 microlitres 0.5 mg/mL of the inhibitory substance solution (without enzyme) are then added and the system is kept under incubation for exactly 10 minutes. 0.5 mL of the trichloroacetic acid solution 5% are added after this period of time and then left for another 5 minutes.
50 microlitres of solution 1 mg/mL of enzyme without inhibitory substance are the introduced. Exactly 3 mL of distilled water at pH=1.5 are added into the vial using a graduated pipette, then the solution is stirred and filtered using a 0.45 μm syringe filter. An absorbance with wavelengths comprised between 300 nm and 250 nm is recorded using a spectrophotometer using the absorbance value at 280 nm as reference.
Each experiment was repeated at least twice. The final absorbance value (A) at 280 nm was the mean of the absorbance values obtained (with an uncertainty on the values always much lower than 10%). A ΔA, with ΔAx=A280sample substanceX−A280blank substance X and ΔAo=A280sample free pepsin−A280blank free pepsin in the event of absence of the inhibitory substance are associated with the pepsin-inhibiting substance. […]

[2] = physchem; conditions: Solubility in ethanol (EtOH)

## CC(C)CC(=O)N[C@H](C(=O)N[C@H](C(=O)N[C@@H](CC(C)C)[C@@H](O)CC(=O)N[C@@H](C)C(=O)N[C@@H](CC(C)C)[C@@H](O)CC(=O)O)C(C)C)C(C)C [PEPSTATIN, Isovaleryl-L-val-L-val-statyl-L-alanyl-statin] (Isovaleryl-VV[Sta]A[Sta]-OH)
[1]; pepsin 0.02%, haemoglobin 2%, pH 1.5, 37° C., 10 minutes
  ΔAX at 280 nm: 0
[1]; pepsin 0.02%, haemoglobin 2%, pH 1.5, 37° C., 10 minutes, listed as Pepstatin
  ΔAX at 280 nm: 0
[1]; pepsin 0.02%, haemoglobin 2%, pH 1.5, 37° C., 10 minutes, listed as pepstatin
  ΔAX at 280 nm: 0.004
[1]; inhibitor 0.01%, pepsin 0.02%, haemoglobin 2%, pH 1.5, 37° C., 10 minutes
  Residual activity with respect to the maximum activity measured: 0%
[1]; pepstatin 1 μM diluted in H2O after dissolution in EtOH 1 mg/mL, added to haemoglobin 2% before pepsin, pH 1.5, 10 min (FIG. 3)
  Activity of pepsin in the presence of pepstatin 1 μM: total abatement in the activity
[1]; pepstatin 1 μM in haemoglobin 2%, time scale of the experiment t=10 minutes
  Binding between the enzyme and the inhibitor (kinetics study): immediate binding
[1]; statement in Conclusions, no picomolar test described
  Concentrations at which pepsin is inhibited / totally deactivated: picomolar concentrations
[2]
  solubility: 1000 µg/mL (≈ 1460 µM)
